From PubChem BioAssay (NCI)
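How tested: cells in 96-well plates exposed to compound for 48 hours at five concentrations. GI50 is the concentration that inhibits growth by half. At the TGI there is no net growth.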

Assays:
Experiment in all cases: NCI tumour cell line growth inhibition, 48 h
786-0 renal = tested on: 786-0 renal
A498 renal = tested on: A498 renal
A549 NSCLC = tested on: A549 NSCLC
ACHN renal = tested on: ACHN renal
BT-549 breast = tested on: BT-549 breast
CAKI-1 renal = tested on: CAKI-1 renal
CCRF-CEM leukemia = tested on: CCRF-CEM leukemia
COLO 205 colon = tested on: COLO 205 colon
DU-145 prostate = tested on: DU-145 prostate
HCC-2998 colon = tested on: HCC-2998 colon
HCT-116 colon = tested on: HCT-116 colon
HCT-15 colon = tested on: HCT-15 colon
HOP-92 NSCLC = tested on: HOP-92 NSCLC
HS 578T breast = tested on: HS 578T breast
HT29 colon = tested on: HT29 colon
K-562 leukemia = tested on: K-562 leukemia
KM12 colon = tested on: KM12 colon
LOX IMVI melanoma = tested on: LOX IMVI melanoma
M14 melanoma = tested on: M14 melanoma
MCF7 breast = tested on: MCF7 breast
MDA-MB-231 breast = tested on: MDA-MB-231 breast
MDA-MB-435 = tested on: MDA-MB-435
MOLT-4 leukemia = tested on: MOLT-4 leukemia
NCI-H226 lung = tested on: NCI-H226 lung
NCI-H23 lung = tested on: NCI-H23 lung
NCI-H460 lung = tested on: NCI-H460 lung
NCI-H522 lung = tested on: NCI-H522 lung
NCI/ADR-RES ovarian = tested on: NCI/ADR-RES ovarian
OVCAR-3 ovarian = tested on: OVCAR-3 ovarian
OVCAR-4 ovarian = tested on: OVCAR-4 ovarian
OVCAR-5 ovarian = tested on: OVCAR-5 ovarian
OVCAR-8 ovarian = tested on: OVCAR-8 ovarian
PC-3 prostate = tested on: PC-3 prostate
SF-268 CNS = tested on: SF-268 CNS
SK-MEL-2 melanoma = tested on: SK-MEL-2 melanoma
SK-MEL-28 melanoma = tested on: SK-MEL-28 melanoma
SK-OV-3 ovarian = tested on: SK-OV-3 ovarian
SN12C renal = tested on: SN12C renal
SNB-19 CNS = tested on: SNB-19 CNS
SNB-75 CNS = tested on: SNB-75 CNS
SW-620 colon = tested on: SW-620 colon
T-47D breast = tested on: T-47D breast
TK-10 renal = tested on: TK-10 renal
U251 CNS = tested on: U251 CNS
UACC-257 melanoma = tested on: UACC-257 melanoma
UO-31 renal = tested on: UO-31 renal

## COc1cc(/C=C/c2cc(/C=C/c3ccc(O)c(OC)c3)n(C(N)=O)n2)ccc1O
786-0 renal
  GI50: 372 nM
  TGI: 1370 nM
A498 renal
  GI50: 1120 nM
  TGI: 3480 nM
A549 NSCLC
  GI50: 491 nM
  TGI: 11300 nM
ACHN renal
  GI50: 342 nM
  TGI: 10200 nM
BT-549 breast
  GI50: 395 nM
  TGI: 1580 nM
CAKI-1 renal
  GI50: 368 nM
  TGI: 10000 nM
CCRF-CEM leukemia
  GI50: 295 nM
  TGI: > 100000 nM
COLO 205 colon
  GI50: 2360 nM
  TGI: 6030 nM
DU-145 prostate
  GI50: 482 nM
  TGI: 1630 nM
HCC-2998 colon
  GI50: 1560 nM
  TGI: 11200 nM
HCT-116 colon
  GI50: 314 nM
  TGI: 1110 nM
HCT-15 colon
  GI50: 312 nM
  TGI: 2010 nM
HOP-92 NSCLC
  GI50: 861 nM
  TGI: 4400 nM
HS 578T breast
  GI50: 259 nM
  TGI: 2520 nM
HT29 colon
  GI50: 2180 nM
  TGI: 5280 nM
K-562 leukemia
  GI50: 350 nM
  TGI: > 100000 nM
KM12 colon
  GI50: 351 nM
  TGI: 1860 nM
LOX IMVI melanoma
  GI50: 493 nM
  TGI: 2750 nM
M14 melanoma
  GI50: 283 nM
  TGI: 1030 nM
MCF7 breast
  GI50: 314 nM
  TGI: 1450 nM
MDA-MB-231 breast
  GI50: 655 nM
  TGI: 12800 nM
MDA-MB-435
  GI50: 102 nM
  TGI: 346 nM
MOLT-4 leukemia
  GI50: 365 nM
  TGI: > 100000 nM
NCI-H226 lung
  GI50: 1380 nM
  TGI: 4400 nM
NCI-H23 lung
  GI50: 647 nM
  TGI: 3530 nM
NCI-H460 lung
  GI50: 318 nM
  TGI: 1300 nM
NCI-H522 lung
  GI50: 252 nM
  TGI: 964 nM
NCI/ADR-RES ovarian
  GI50: 435 nM
  TGI: 4440 nM
OVCAR-3 ovarian
  GI50: 427 nM
  TGI: 2190 nM
OVCAR-4 ovarian
  GI50: 570 nM
  TGI: 5030 nM
OVCAR-5 ovarian
  GI50: 1760 nM
  TGI: > 100000 nM
OVCAR-8 ovarian
  GI50: 543 nM
  TGI: 22800 nM
PC-3 prostate
  GI50: 439 nM
  TGI: 2310 nM
SF-268 CNS
  GI50: 439 nM
  TGI: 4830 nM
SK-MEL-2 melanoma
  GI50: 400 nM
  TGI: 1130 nM
SK-MEL-28 melanoma
  GI50: 609 nM
  TGI: 3260 nM
SK-OV-3 ovarian
  GI50: 392 nM
  TGI: 1930 nM
SN12C renal
  GI50: 585 nM
  TGI: 5940 nM
SNB-19 CNS
  GI50: 691 nM
SNB-75 CNS
  GI50: 311 nM
  TGI: 1260 nM
SW-620 colon
  GI50: 398 nM
  TGI: 1820 nM
T-47D breast
  GI50: 507 nM
  TGI: 3680 nM
TK-10 renal
  GI50: 1300 nM
  TGI: 4730 nM
U251 CNS
  GI50: 526 nM
  TGI: 10500 nM
UACC-257 melanoma
  GI50: 1530 nM
  TGI: 9030 nM
UO-31 renal
  GI50: 370 nM
  TGI: 1690 nM
